Laboratory results reported in US8242166B2, “C(10) ethyl ester and C(10) cyclopropyl ester substituted taxanes” (Florida State University Research Foundation, Inc., priority 2008, dated 2012).
Read-outs that look alike come from different tables or passages of the source.

Experiments:
[1] = system: human SKMES lung carcinoma xenografts; assay: SKMES xenograft study e82, i.v. q4d×4 (Example 21); assay type: in vivo, nude mice; details: 30 mg/kg i.v. q4d×4; five mice
[2] = system: MX1 human tumor xenografts; assay: MX1 xenograft study e220, i.v. q4d×4 (Example 18); details: for maximum group mean BW loss: on D19
[3] = system: human HT29 colon carcinoma xenografts
[4] = system: SKMES lung tumors; assay: SKMES xenograft study, i.v. single dose (Example 20); assay type: in vivo, nude mice; details: 30 mg/kg iv qd × 1
Method: This study was conducted at PRC as previously described. SKMES is a human lung cancer cell line. In the present study, compound 2 and all agents were administered as i.v. monotherapies in a single 30 mg/kg dose (qd×1). […] Control mice received this vehicle qd×1. […] The endpoint volume for tumor growth was 1,500 mm^3. The study was terminated on Day 23.

[5] = system: HT29 human tumor xenografts; assay: HT29 xenograft study e133 (Example 24); assay type: in vivo, nude mice
Method: […]. Control mice received the 5% E 95% L-II vehicle q4d×4. A positive reference group received i.v. therapy with compound 2, at 30 mg/kg once weekly for three weeks (q7d×3), in a vehicle of 7.5% ethanol and 7.5% Tween® 80 in 5% dextrose in water. […] The endpoint volume for tumor growth was 1,000 mm^3. […].

CCC(=O)O[C@H]1C(=O)[C@@]2(C)C([C@H](OC(=O)c3ccccc3)[C@]3(O)C[C@H](OC(=O)[C@H](O)[C@@H](NC(=O)OC4CCC4)c4cccs4)C(C)=C1C3(C)C)[C@]1(OC(C)=O)CO[C@@H]1C[C@@H]2O (stereo partly shown) [Compound 19244]
TFS [1]: 3 | partial response [1]: two | % TGD ([2]; 7.5 mg/kg iv q4d × 4): 217.17% | BW Nadir ([2]; 7.5 mg/kg iv q4d × 4): −3.1% (19) | MTV (n), Day 57 ([2]; 7.5 mg/kg iv q4d × 4): 0.00 (5) mm^3 | Median TTE ([2]; 7.5 mg/kg iv q4d × 4): 57 days | T-C ([2]; 7.5 mg/kg iv q4d × 4): 39.03 days | CR (complete regression) ([2]; 7.5 mg/kg iv q4d × 4, n=5): 5 | NTR (non-treatment-related death) ([2]; 7.5 mg/kg iv q4d × 4, n=5): 0 | PR (partial regression) ([2]; 7.5 mg/kg iv q4d × 4, n=5): 0 | TFS (tumor-free survivor) ([2]; 7.5 mg/kg iv q4d × 4, n=5): 3 | TR (treatment-related death) ([2]; 7.5 mg/kg iv q4d × 4, n=5): 0 | transient CRs ([2]; 7.5 mg/kg iv q4d × 4, n=5): 2 | maximum group mean BW loss ([2]; 7.5 mg/kg iv q4d × 4): 3.1% | % TGD ([2]; 15 mg/kg iv q4d × 4): 217.17% | BW Nadir ([2]; 15 mg/kg iv q4d × 4): −7.6% (19) | MTV (n), Day 57 ([2]; 15 mg/kg iv q4d × 4): 0.00 (5) mm^3 | Median TTE ([2]; 15 mg/kg iv q4d × 4): 57 days | T-C ([2]; 15 mg/kg iv q4d × 4): 39.03 days | CR (complete regression) ([2]; 15 mg/kg iv q4d × 4, n=5): 5 | NTR (non-treatment-related death) ([2]; 15 mg/kg iv q4d × 4, n=5): 0 | PR (partial regression) ([2]; 15 mg/kg iv q4d × 4, n=5): 0 | TFS (tumor-free survivor) ([2]; 15 mg/kg iv q4d × 4, n=5): 5 | TR (treatment-related death) ([2]; 15 mg/kg iv q4d × 4, n=5): 0 | maximum group mean BW loss ([2]; 15 mg/kg iv q4d × 4): 7.6% | % TGD ([2]; 30 mg/kg iv q4d × 4): 217.17% | BW Nadir ([2]; 30 mg/kg iv q4d × 4): −18.9% (19) | MTV (n), Day 57 ([2]; 30 mg/kg iv q4d × 4): 0.00 (5) mm^3 | Median TTE ([2]; 30 mg/kg iv q4d × 4): 57 days | T-C ([2]; 30 mg/kg iv q4d × 4): 39.03 days | CR (complete regression) ([2]; 30 mg/kg iv q4d × 4, n=5): 4 | NTR (non-treatment-related death) ([2]; 30 mg/kg iv q4d × 4, n=5): 0 | PR (partial regression) ([2]; 30 mg/kg iv q4d × 4, n=5): 1 | TFS (tumor-free survivor) ([2]; 30 mg/kg iv q4d × 4, n=5): 4 | TR (treatment-related death) ([2]; 30 mg/kg iv q4d × 4, n=5): 0 | maximum group mean BW loss ([2]; 30 mg/kg iv q4d × 4): 18.9% | LTTFS ([3]; 30 mg/kg i.v. q4d×4, six mice): 1 | regression responses ([3]; 30 mg/kg i.v. q4d×4, six mice): six | % TGD [4]: 61.94% | MTV (n), Day 23 [4]: 352.00 (5) mm^3 | Median TTE [4]: 23 days | T-C [4]: 8.8 days | NTR NTRm ([4]; n=5): 0 | PR (partial regression) ([4]; n=5): 0 | TFS (tumor-free survivor) ([4]; n=5): 1 | TR (treatment-related death) ([4]; n=5): 0 | MTV ([5]; 30 mg/kg i.v. q4d×4): 0 | TGD ([5]; 30 mg/kg i.v. q4d×4): 172% | 55-day survivors ([5]; 30 mg/kg i.v. q4d×4, six mice): five | Max. % BW Loss; Day ([5]; 30 mg/kg iv Q4d × 4): −17.3%; Day 17 | # Death NTR ([5]; 30 mg/kg iv Q4d × 4, n=6): 0

CC(=O)O[C@@]12CO[C@@H]1C[C@H](O)[C@@]1(C)C(=O)[C@H](O)C3=C(C)[C@@H](OC(=O)[C@H](O)[C@@H](NC(=O)OC(C)(C)C)c4ccccc4)C[C@@](O)([C@@H](OC(=O)c4ccccc4)[C@H]21)C3(C)C [Docetaxel, docetaxel, reference compound]
% TGD ([2]; 25 mg/kg iv qwk × 3): 217.17% | BW Nadir ([2]; 25 mg/kg iv qwk × 3): −10.9% (22) | MTV (n), Day 57 ([2]; 25 mg/kg iv qwk × 3): 0.00 (5) mm^3 | Median TTE ([2]; 25 mg/kg iv qwk × 3): 57 days | T-C ([2]; 25 mg/kg iv qwk × 3): 39.03 days | CR (complete regression) ([2]; 25 mg/kg iv qwk × 3, n=5): 5 | NTR (non-treatment-related death) ([2]; 25 mg/kg iv qwk × 3, n=5): 0 | PR (partial regression) ([2]; 25 mg/kg iv qwk × 3, n=5): 0 | TFS (tumor-free survivor) ([2]; 25 mg/kg iv qwk × 3, n=5): 5 | TR (treatment-related death) ([2]; 25 mg/kg iv qwk × 3, n=5): 0 | LTTFS ([3]; 25 mg/kg q7d×3, six mice): one | PR responses ([3]; 25 mg/kg q7d×3, six mice): 4 | Number of Death NTR ([3]; mouse, in vivo): 0 | Number of Death TR ([3]; mouse, in vivo): 0 | % TGD [4]: 61.94% | MTV (n), Day 23 [4]: 166.75 (4) mm^3 | Median TTE [4]: 23 days | T-C [4]: 8.8 days | CR (complete regression) ([4]; n=5): 0 | NTR NTRm ([4]; n=5): 0 | PR (partial regression) ([4]; n=5): 2 | TFS (tumor-free survivor) ([4]; n=5): 0 | TR (treatment-related death) ([4]; n=5): 0 | # Death NTR ([5]; 30 mg/kg iv Q7d × 3, n=6): 0 | # Death TR ([5]; 30 mg/kg iv Q7d × 3, n=6): 0
